Measurements as given in patent publication US5491220A, “Surface loop structural analogues of fibroblast growth factors” (Yeda Research and Development Co., Ltd., priority 1994, dated 1996).

Legend:
ABAE cells = assay: In vitro angiogenesis: capillary-like tube formation by ABAE cells on collagen gel; assay type: cell-based, bovine; conditions: ABAE cells on type I collagen gel, 48 hours; compared with wild-type FGF-2
Experimental: In vitro anglogenesis evaluations are made by observing whether the mutants induce capillary-like structures in ABAE cells cultured on a 3-dimensionalcollagen gel. Three-dimensional collagen gel plates (24-well) are prepared by adding 0.5 ml chilled solution of 0.7 mg/ml rat-tail type I collagen (Becton Dickinson Labwares, Bedford, Mass.) containing DMEM and adjusting to neutral pH with NaHCO3 to each well. After formation of collagen gel (about 1-2 mm thickness), ABAE cells are seeded at 50,000 cells/well. The cultures are maintained at 37° C. in DMEM containing 10% calf serum (Hyclone, Logan, Utah) supplemented with penicillin (100 units/ml), streptomycin (100 μg/ml) and L-glutamine (2 mM) until the cultures reach confluency, usually in 5 days by which time the cells form a monolayer on the gel. The medium is then replaced with fresh medium containing different concentrations of FGF-2 or mutants. […]
The abundance of the capillary-like structures formed by ABAE cells is analyzed by using a Kontron IBAS Image Analyzer assisted with a Hamamatsu C2400 video camera and a Zeiss Axioshop microscope. […] The extent of in vitro angiogenesis is then measured as a percentage of the white areas. […] Three to four areas of each well are examined by image analysis and the mean value and standard deviation are determined. […]

FGFR1 = assay: Chemical cross-linking of 125I-FGF to soluble FGFR1; assay type: binding, murine; conditions: with and without excess unlabelled FGF
Experimental: (§1) Binding of FGF proteins to different FGF receptors are determined in this example, by measuring the degree of competition for binding to different types of FGF-receptor proteins between a radioiodinated FGF protein and various unlabelled proteins, or by the direct binding of radioiodinated FGF's to various receptor proteins. Binding studies are confirmed by chemical cross-linking of the radioiodinated FGF to soluble receptors in the presence and absence of excess unlabelled FGF.
(§2) Soluble FGF receptor proteins are constructed by cloning of the extracellular region of murine FGF receptor 1 (FGFR-1; flg), FGF receptor 2 (FGFR-2; bek) or the KGF receptor (FGFR(IIIb); K-sam) into the alkaline phosphatase-tag expression vector, which encodes for a secreted form of placental alkaline phosphatase (AP). The FGF receptor alkaline phosphatase (FRAP) plasmids are cotransfected into NIH 3T3 cells by electroporation with a selectable neomycin resistance gene. Clonies are selected in G418 (600 μg/ml) and screened for secreted AP enzyme activity in the conditioned medium. Clones of each receptor which produced a high level of AP activity (2 to 4 A405 units/min/ml) are then used to produce conditioned medium for binding assays.
(§3) Chemical cross-linking experiments are carried out at room temperature in a volume of 20 μl in siliconized 0.5-ml microcentrifuge tubes. The reaction mixtures contain FGF receptor immobilized to anti-AP monoclonal antibodies coupled to protein A Sepharose®, 200 ng/ml heparin, 2 ng/ml^125 I-bFGF, 20 mM phosphate buffer (pH 7.4), and 140 mM NaCl. After a 90 minute incubation, […] of a solution of disuccinimidyl suberate (Pierce) dissolved in dimethyl sulfoxide is added to give a final concentration of 0.15 mM, and the mixture incubated for an additional 30 minutes. The reaction is quenched by addition of […] of 200 mM ethanolamine-HCl (pH 8.0) for 30 min. The reaction mixtures are diluted 1:1 with 2× SDS-polyacrylamide gel electrophoresis loading buffer and electrophoresed on an SDS-12% polyacrylamide gel. Cross-linked FGF to the FGF receptor are detected by autoradiography on Kodak XAR film.

FGFR2(IIIb) = assay: Chemical cross-linking of 125I-FGF to soluble FGFR2(IIIb); assay type: binding, murine; conditions: with and without excess unlabelled FGF
Experimental: as §1, §2, §3

[1] = Affinity for immobilized heparin (NaCl elution from heparin column); assay type: binding; conditions: TSK-heparin column
Experimental: Cells from 1 liter cultures are harvested by centrifugation, resuspended in 30 ml of 50 mM Tris-HCl, pH 7.5 containing 0.1 mM EDTA and 0.6M NaCl, and disrupted by treatment with lysozyme (10 μg/ml) for 20 min at 4° C. followed by sonication (6×30 sec pulses). The lysates are clarified by centrifugation (10,000×g; 20 min) and the supernatant solutions incubated with 5 ml of hydrated heparin Sepharose (Pharmacia/LKB) at 4° C. for 1 hour with constant rotation. The resin is isolated by filtration on 0.8 μm filter apparatus (Nalgene), washed extensively with 10 mM Tris-HCl pH 7.4 containing 0.6M NaCl and bound protein eluted with Tris buffer containing 3M NaCl (25 ml). The 3M NaCl eluent is diluted 6-fold with Tris buffer and loaded onto a TSK heparin 5PW column (0.21×15 cm; The Nest Group, MA) and the column developed using a linear NaCl gradient (0.6 to 2M) in 90 min at a flow rate of […].
NaCl elution from heparin-Sepharose® is about 0.7M NaCl, compared with 1.4M NaCl for the wild-type protein. The molarity of NaCl required to elute the LK mutant is similar to that required to elute FGF-7.

neovascularization = assay: In vivo angiogenesis, rabbit ear chamber model
Experimental: In an in vivo model of angiogenesis, FGF-2LI is evaluated using the rabbit ear chamber system modified and improved by Howden, G. F., and Silver, I. A., (Int. Endodontic J. 13: 3-16 (1980)), observing the growth factor-induced neovascularization, or its inhibition, by modified growth factors or other reagents.
Rabbits are sedated using 50-70 mg/kg ketamine and 10 mg/kg xylozine administered intramuscularly. The ears are shaved with an electric hair clipper and cleaned with water, followed by Betadine®. To minimize the risk of infection, the rabbits are given 20,000 units/kg benzathine penicillin intramuscularly prior to insertion of the ear chambers. The chamber is inserted into an approximately 0.75 cm area which is not crossed by any major vessels. During the course of the experiments, observations or any minor handling of ear chambers of the animals is done by sedating the animal using the intramuscular administration of a combination of Butorphanol® and acepromazine at levels of 1 mg/kg each. FGF-2 or FGF-2LI bound to heparin-Sepharose® beads in a controlled-release alginate capsule is contained in one of the ear chambers and the other is used as a control containing only the heparin-Sepharose® alginate capsule vehicle. Thus, the effect of the growth factors and the controlled-release capsule alone can be observed simultaneously in the same animal. […] The animals are kept for 4 to 6 weeks and neovascularization is observed visually and recorded photographically at weekly intervals.
The criteria for evaluation of the degree of neovascularization using this procedure is set out below.

Row | Substance | Induction of tube formation (capillary-like structures) (ABAE cells) | Cross-linking to FGFR1 (FGFR1) | Cross-linking to FGFR2(IIIb) (FGFR2(IIIb)) | NaCl concentration at elution from TSK-heparin column [1] | Angiogenesis at 400 ng/chamber (neovascularization; 400 ng/chamber) | Concentration range over which stimulatory activity is observed (neovascularization; rabbit ear chamber) | Potential to induce angiogenesis (neovascularization) (neovascularization; rabbit ear chamber, controlled-release alginate capsule) | Vessel formation in the chamber (neovascularization; rabbit ear chamber, versus control chambers)
1 | FGF-2LA: human FGF-2 with loop residues 118-122 replaced by Lys-Lys-His-Ala-Glu-Lys-His from bovine FGF-1 (SEQ ID NO 16) (KKHAEKH; printed: Lys-Lys-His-Ala-Glu-Lys-His) | comparable with the wildtype | bind | bind | about 1.5 M |  |  |  | 
2 | FGF-2LI: human FGF-2 with loop residues 118-122 replaced by Ala-Gln-Phe-Pro-Asn from human interleukin-1β (SEQ ID NO 15) | much less than that by wild-type FGF-2 | bind | excluded from binding | about 1.5 M | greatly stimulates formation of capillaries and larger vessels | 0.1-400 ng/chamber | superior to FGF-2 | stimulate large vessel formation
